Assay results from patent publication US10128078B2, “Protective agent for electron microscopic observation of biological sample in water-containing state, kit for electron microscopic observation, methods for observation, diagnosis, evaluation, and quantification by electron microscope, and sample stage” (JAPAN SCIENCE AND TECHNOLOGY AGENCY, priority 2014, dated 2018).

Legend:
[1] = test system: artificial human skin; assay: SEM observation of three-dimensionally cultured artificial human skin after adding a drug (side effect evaluation); format: cell-based; conditions: 60 minutes after gefitinib dissolved in DMSO was added; SEM 2,500-fold; DMSO control kept normal morphology
Method: (§1) A protective agent for electron microscopic observation and a surfactant-containing solution were prepared in the same manner as in Example 1.
The artificial human skin obtained by sterically three-dimensionally culturing a normal human skin cell was treated with the protective agent for electron microscopic observation and the surfactant-containing solution in 60 minutes after gefitinib was added the artificial human skin. Thereafter, the artificial human skin covered with the surfactant-containing solution was introduced into the sample chamber of the SEM, irradiated with an electron beam to polymerize the surfactant-containing solution and thus to form a thin film, and subjected to the SEM observation (Example 12).
FIGS. 18A and 18B are photographs of the three-dimensionally cultured artificial human skin. FIG. 18A is a photograph which illustrates the artificial human skin being cultured and the culture vessel. In addition, FIG. 18B is a photograph of the HE-stained pathological section of the artificial human skin of FIG. 18A. FIG. 19(a) is an image of the artificial human skin which was observed and taken at a magnification of 2,500-fold by a SEM after gefitinib dissolved in dimethyl sulfoxide (DMSO) was added the artificial human skin. […]

[2] = test system: metastatic human melanoma cell line; assay: SEM observation of metastatic human melanoma cell line inoculated on a cell sheet of normal human skin cell after adding an anti-cancer drug; format: cell-based; conditions: 60 minutes after sorafenib was added; cell sheet of human skin-derived fibroblast cell; SEM image
Method: as §1
A cell sheet obtained by culturing a normal human skin cell in a plate shape was inoculated with a metastatic human melanoma cell line and treated with the protective agent for electron microscopic observation and the surfactant-containing solution in 60 minutes after sorafenib of a kind of anti-cancer drug was added the cell sheet. Thereafter, the metastatic human melanoma cell line covered with the surfactant-containing solution was introduced into the sample chamber of the SEM, irradiated with an electron beam to polymerize the surfactant-containing solution and thus to form a thin film, and subjected to the SEM observation.
FIG. 17(a) is an image of the metastatic human melanoma cell line which was inoculated onto a cell sheet of the human skin-derived fibroblast cell, to which sorafenib was added, and which was observed and taken at a magnification of 1000-fold by a SEM. In addition, FIG. 17(b) is an image of FIG. 17(a) which was observed and taken at a magnification of 5000-fold by a SEM.

Compound	surface change of a skin cell (side effect) [1]	extension of a microfiber and invasion of the melanoma cell line into the normal skin cell [2]
COc1cc2ncnc(Nc3ccc(F)c(Cl)c3)c2cc1OCCCN1CCOCC1 [gefitinib]	peeled off in a scale shape	–
CNC(=O)c1cc(Oc2ccc(NC(=O)Nc3ccc(Cl)c(C(F)(F)F)c3)cc2)ccn1 [sorafenib]	–	not able to extend a microfiber so that the invasion thereof is suppressed
